pEC50, pIC50: −log10 of the molar value.
Experiments:
[1] = tested on: Influenza strain A549 A/WSN/33 (H1N1); assay: Influenza Antiviral Assay; type: cell-based, Influenza A virus; details: Influenza A virus, A549, 20 h, neuraminidase fluorescence readout, read-out: % Inhibition
[2] = target: EN PA (Influenza A virus, UniProt P15659); assay: EN PA FRET Inhibition Assay; type: biochemical; details: read-out: Potency

**Q.** With CNC(=O)c1nn(CC2(n3ccc4cccc(C)c43)CCCC2)cc(O)c1=O [Compound 808] as the molecule, how does the pEC50 [1] read?
**A.** > 4.70

**Q.** And the pIC50 [2]?
**A.** > 7.00

**Q.** What does the source list for CNC(=O)c1nn(CC2(n3cc(C)c4cccnc43)CCCC2)cc(OC(=O)OC(C)(C)C)c1=O [Compound 789]?
**A.** pEC50 [1]: > 4.70; pIC50 [2]: > 7.00

**Q.** With Cc1cn(C2(Cn3cc(O)c(=O)c(C(=O)NC(C)(C)CO)n3)CCCC2)c2ncccc12 [Compound 820] as the molecule, how does the pEC50 [1] read?
**A.** > 4.70

**Q.** And the pIC50 [2]?
**A.** > 7.00

**Q.** How did the pEC50 [1] turn out when CNC(=O)c1nn(CC2(n3ccc4ccccc43)CCCC2)cc(O)c1=O [Compound 850] was run?
**A.** > 4.70

**Q.** And the pIC50 [2]?
**A.** > 7.00

**Q.** With CNC(=O)c1nn(CC2(n3cc(C)c4cccnc43)CCCC2)cc(OC(=O)OCC(C)(C)C)c1=O [Compound 801] as the molecule, how does the pEC50 [1] read?
**A.** > 4.70

**Q.** What about the pIC50 [2] of the same molecule?
**A.** > 7.00

**Q.** How did the pEC50 [1] turn out when CNC(=O)c1nn(CC2(n3cc(C)c4cccnc43)CCCCC2)cc(O)c1=O [Compound 788] was run?
**A.** > 4.70

**Q.** What about the pIC50 [2] of the same molecule?
**A.** > 7.00

**Q.** Which results are given for CNC(=O)c1nn(CC2(c3cccc(Cl)c3)CCCC2)cc(O)c1=O [Compound 700]?
**A.** pEC50 [1]: > 4.70; pIC50 [2]: > 7.00

**Q.** Which results are given for CNC(=O)c1nn(CC2(n3ccc4c(C)cccc43)CCCC2)cc(O)c1=O [Compound 857]?
**A.** pEC50 [1]: > 4.70; pIC50 [2]: > 7.00

**Q.** O=C(O)c1nn(CC2(c3cccc(C(F)(F)F)c3)CCCC2)cc(O)c1=O [Compound 406] was tested. Which pEC50 [1] did it give?
**A.** > 4.70

**Q.** What about the pIC50 [2] of the same molecule?
**A.** > 7.00

**Q.** O=C(NCc1ccc(F)c(Cl)c1)c1nn(CC2(c3ccc(Cl)c(Cl)c3)CCCC2)cc(O)c1=O [Compound 784] was tested. Which pEC50 [1] did it give?
**A.** > 4.70

**Q.** And the pIC50 [2]?
**A.** 6.00 to 7.00

**Q.** CC(=O)c1nn(CC2(n3cc(C)c4cccnc43)CCCC2)cc(O)c1=O [Compound 795] was tested. Which pEC50 [1] did it give?
**A.** > 4.70

**Q.** What about the pIC50 [2] of the same molecule?
**A.** 6.00 to 7.00

**Q.** How did the pEC50 [1] turn out when CNC(=O)c1nn(CC2(c3cccc4ccccc34)CCCC2)cc(O)c1=O [Compound 749] was run?
**A.** > 4.70

**Q.** And the pIC50 [2]?
**A.** > 7.00

**Q.** What does the source list for O=C(O)c1nn(-c2cccc(C(F)(F)F)c2)cc(O)c1=O [Compound 1, 5-hydroxy-4-oxo-1-(3-(trifluoromethyl)phenyl)-1,4-dihydropyridazine-3-carboxylic acid]?
**A.** pEC50 [1]: < 4.00; pIC50 [2]: 6.00 to 7.00

**Q.** What does the source list for O=C(NCc1ccncc1)c1nn(CC2(c3ccccc3)CCCC2)cc(O)c1=O [Compound 692]?
**A.** pEC50 [1]: > 4.70; pIC50 [2]: > 7.00

**Q.** How did the pEC50 [1] turn out when Cc1cn(C2(Cn3cc(O)c(=O)c(C(=O)NC(C)(C)CN)n3)CCCC2)c2ccccc12 [Compound 868] was run?
**A.** > 4.70

**Q.** What about the pIC50 [2] of the same molecule?
**A.** > 7.00

**Q.** With Cc1cn(C2(Cn3cc(O)c(=O)c(C(=O)NC(C)(C)CNC(=O)OC(C)(C)C)n3)CCCC2)c2ncccc12 [Compound 863] as the molecule, how does the pEC50 [1] read?
**A.** > 4.70

**Q.** And the pIC50 [2]?
**A.** 6.00 to 7.00

**Q.** How did the pEC50 [1] turn out when CNC(=O)c1nn(CC2(n3cc(C)c4cccnc43)CCCC2)cc(OCc2ccccc2)c1=O [Compound 852] was run?
**A.** < 4.00

**Q.** What about the pIC50 [2] of the same molecule?
**A.** ≤ 6.00

**Q.** With O=C(NCc1ccc(F)c(Cl)c1)c1nn(CC2(c3ccncc3)CCCC2)cc(O)c1=O [Compound 809] as the molecule, how does the pEC50 [1] read?
**A.** > 4.70

**Q.** What about the pIC50 [2] of the same molecule?
**A.** > 7.00

**Q.** With Cc1cn(C2(Cn3cc(O)c(=O)c(C(=O)N4CCC4)n3)CCCC2)c2ncccc12 [Compound 773] as the molecule, how does the pEC50 [1] read?
**A.** > 4.70

**Q.** What about the pIC50 [2] of the same molecule?
**A.** > 7.00

**Q.** How did the pEC50 [1] turn out when CCOC(=O)c1nn(CC2(c3cccc(C(F)(F)F)c3)CCCC2)cc(O)c1=O [Compound 405] was run?
**A.** > 4.70

**Q.** What about the pIC50 [2] of the same molecule?
**A.** ≤ 6.00

**Q.** O=C(NCc1ccc(F)c(Cl)c1)c1nn(CC2(c3ccccc3)CCCC2)cc(O)c1=O [Compound 709] was tested. Which pEC50 [1] did it give?
**A.** > 4.70

**Q.** And the pIC50 [2]?
**A.** > 7.00

**Q.** What does the source list for CNC(=O)c1nn(CC2(c3cccc4nn(C)cc34)CCCC2)cc(O)c1=O [Compound 882]?
**A.** pEC50 [1]: > 4.70; pIC50 [2]: > 7.00

**Q.** With CNC(=O)c1nn(CCC2CCCCC2)cc(O)c1=O [Compound 606] as the molecule, how does the pEC50 [1] read?
**A.** 4.00 to 4.70

**Q.** What about the pIC50 [2] of the same molecule?
**A.** ≤ 6.00

**Q.** CC1(C)CC(Cn2cc(O)c(=O)c(C(=O)O)n2)(c2ccccc2)C1 [Compound 785] was tested. Which pEC50 [1] did it give?
**A.** < 4.00

**Q.** And the pIC50 [2]?
**A.** > 7.00

**Q.** CNC(=O)c1nn(CC2(n3cc(C4CC4)c4cccnc43)CCCC2)cc(O)c1=O [Compound 718] was tested. Which pEC50 [1] did it give?
**A.** > 4.70

**Q.** What about the pIC50 [2] of the same molecule?
**A.** > 7.00

**Q.** CNC(=O)c1nn(CC2(n3cc(Cl)c4cc(Cl)ccc43)CCCC2)cc(O)c1=O [Compound 899] was tested. Which pEC50 [1] did it give?
**A.** > 4.70

**Q.** What about the pIC50 [2] of the same molecule?
**A.** > 7.00
